What was measured:
Assay in all cases: In vitro antifungal activity, microbroth dilution MIC
Assay type in all cases: cell-based
[1] = tested on: Aspergillus furnigatus B. 19119; details: RPMI-1640, 35° C., 4 to 48 hours, no growth observed
How it was run: (§1)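 Broth microdilution adapted from NCCLS M27, in RPMI-1640 with 0.165 M MOPS, pH 7.0. Yeast or mould inoculum at 2×10^3 CFU/ml was mixed 1:1 with DMSO-derived compound solutions (200 to 0.10 μg/ml before mixing) and incubated at 35 °C for 4 to 48 h. MIC was the concentration showing no growth.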

[2] = tested on: Aspergillus niger A. 16404; details: RPMI-1640, 35° C., 4 to 48 hours, no growth observed
How it was run: as §1

[3] = tested on: Candida albicans A. 10231; details: 4 to 48 hours; for Minimal inhibitory concentration (MIC): C. albicans A. 10231, RPMI-1640, 35° C.; for Minimal inhibitory concentration(MIC), C. albicans A. 10231: RPMI-1640, 35° C., no growth observed
How it was run: as §1

Candida albicans C1-2 = details: 4 to 48 hours; for Minimal inhibitory concentration (MIC): C. albicans C1-2, RPMI-1640, 35° C.; for Minimal inhibitory concentration(MIC), C. albicans C1-2: RPMI-1640, 35° C., no growth observed
How it was run: as §1

[4] = tested on: Candida albicans IFO. 1385; details: RPMI-1640, 35° C., 4 to 48 hours, no growth observed
How it was run: as §1

Candida krusei K. 11655 = details: RPMI-1640, 35° C., 4 to 48 hours, no growth observed
How it was run: as §1

[5] = tested on: Candida parapsitosis A. 7330; details: RPMI-1640, 35° C., 4 to 48 hours, no growth observed
How it was run: as §1

[6] = tested on: Candida pseudotropicalis K. 11658; details: RPMI-1640, 35° C., 4 to 48 hours, no growth observed
How it was run: as §1

[7] = tested on: Candida tropicalis A. 13803; details: RPMI-1640, 35° C., 4 to 48 hours, no growth observed
How it was run: as §1

[8] = tested on: Cryptococcus neoformans A. 34144; details: RPMI-1640, 35° C., 4 to 48 hours, no growth observed
How it was run: as §1

[9] = tested on: Cryptococcus neoformans B. 42419; details: RPMI-1640, 35° C., 4 to 48 hours, no growth observed
How it was run: as §1

[10] = tested on: Cryptococcus neoformans IFM. 40092; details: RPMI-1640, 35° C., 4 to 48 hours, no growth observed
How it was run: as §1

[11] = tested on: Torulopsis glabrata B. 16205; details: RPMI-1640, 35° C., 4 to 48 hours, no growth observed
How it was run: as §1

[12] = tested on: Trichophyton mentagrophytes A. 9129; details: RPMI-1640, 35° C., 4 to 48 hours, no growth observed
How it was run: as §1

[13] = tested on: Trichophyton mentagrophytes B. 32663; details: RPMI-1640, 35° C., 4 to 48 hours, no growth observed
How it was run: as §1

Row | Structure (SMILES) | Minimal inhibitory concentration(MIC), A furnigatus B. 19119 [1] [µg/mL] | Minimal inhibitory concentration(MIC), A. niger A. 16404 [2] [µg/mL] | Minimal inhibitory concentration (MIC) [3] [µg/mL] | Minimal inhibitory concentration (MIC) (Candida albicans C1-2) [µg/mL] | Minimal inhibitory concentration(MIC), C. albicans IFO. 1385 [4] [µg/mL] | Minimal inhibitory concentration(MIC), C. krusei K. 11655 (Candida krusei K. 11655) [µg/mL] | Minimal inhibitory concentration(MIC), C. parapsitosis A. 7330 [5] [µg/mL] | Minimal inhibitory concentration(MIC), C. pseudotropicalis K. 11658 [6] [µg/mL] | Minimal inhibitory concentration(MIC), C. tropicalis A. 13803 [7] [µg/mL] | Minimal inhibitory concentration(MIC), Cry. neoformans A. 34144 [8] [µg/mL] | Minimal inhibitory concentration(MIC), Cry. neoformans B. 42419 [9] [µg/mL] | Minimal inhibitory concentration(MIC), Cry. neoformans IFM. 40092 [10] [µg/mL] | Minimal inhibitory concentration(MIC), T. glabrata B. 16205 [11] [µg/mL] | Minimal inhibitory concentration(MIC), T. mentagrophytes A. 9129 [12] [µg/mL] | Minimal inhibitory concentration(MIC), T. mentagrophytes B. 32663 [13] [µg/mL] | Minimal inhibitory concentration(MIC), C. albicans A. 10231 [3] [µg/mL] | Minimal inhibitory concentration(MIC), C. albicans C1-2 (Candida albicans C1-2) [µg/mL]
1 | FC(=Cc1ccc2c(c1)OCO2)OCC1COC(Cn2cncn2)(c2ccc(Cl)cc2Cl)O1 (mixture of isomers) [Ex. 75] | 100 | >100 | 100 | 100 | 25.0 | 100 | >100 | 25.0 | 100 | 1.56 | 1.56 | 0.39 | 50.0 | 3.13 | 3.13 |  | 
2 | FC(=Cc1ccc(Cl)cc1)OCC1COC(Cn2cncn2)(c2ccc(Cl)cc2Cl)O1 (mixture of isomers) [Ex. 76] | 25.0 | 12.5 | 6.25 | 6.25 | 6.25 | >100 | >100 | 100 | 25.0 | 3.13 | 3.13 | 0.78 | 25.0 | 3.13 | 3.13 |  | 
3 | FC(=Cc1ccc(F)cc1)OCC1COC(Cn2cncn2)(c2ccc(Cl)cc2Cl)O1 (mixture of isomers) [Ex. 77] | 100 | >100 | 100 | 100 | 25.0 | 12.5 | 12.5 | 6.25 | 100 | 3.13 | 1.56 | 0.78 | 50.0 | 6.25 | 6.25 |  | 
4 | FC(OCC1COC(Cn2cncn2)(c2ccc(Cl)cc2Cl)O1)=C(c1ccccc1)C(F)(F)F (mixture of isomers) [Ex. 79] | >100 | >100 | >100 | >100 | >100 | >100 | >100 | >100 | >100 | >100 | >100 | 1.56 | >100 | >100 | >100 |  | 
5 | Cc1cccc(C(=C(F)OCC2COC(Cn3cncn3)(c3ccc(Cl)cc3Cl)O2)C(F)(F)F)c1 (mixture of isomers) [Ex. 80] | >100 | >100 | >100 | >100 | 12.5 | >100 | >100 | >100 | >100 | 1.56 | 1.56 | 0.78 | >100 | 100 | 100 |  | 
6 | Cc1ccc(C(=C(F)OCC2COC(Cn3cncn3)(c3ccc(Cl)cc3Cl)O2)C(F)(F)F)cc1 (mixture of isomers) [Ex. 81] | >100 | >100 |  |  | 12.5 | >100 | >100 | 50.0 | >100 | 0.78 | 1.56 | 0.39 | >100 | 100 | 100 | >100 | >100
7 | Cc1ccc(C(=C(F)OCC2COC(Cn3cncn3)(c3ccc(Cl)cc3Cl)O2)C(F)(F)F)cc1C (mixture of isomers) [Ex. 82] | >100 | >100 |  |  | 12.5 | >100 | >100 | >100 | >100 | 3.13 | 3.13 | 0.39 | >100 | >100 | >100 | >100 | >100
8 | Cc1cc(C)cc(C(=C(F)OCC2COC(Cn3cncn3)(c3ccc(Cl)cc3Cl)O2)C(F)(F)F)c1 (mixture of isomers) [Ex. 83] | >100 | >100 |  |  | >100 | >100 | >100 | >100 | >100 | >100 | >100 | 1.56 | >100 | >100 | >100 | >100 | >100
9 | COc1ccc(C(=C(F)OCC2COC(Cn3cncn3)(c3ccc(Cl)cc3Cl)O2)C(F)(F)F)cc1 (mixture of isomers) [Ex. 84] | >100 | >100 |  |  | 6.25 | >100 | >100 | >100 | >100 | 1.56 | 1.56 | 0.78 | >100 | >100 | >100 | >100 | 100
